According to patent US9938562B2, “Naphthalene derived chromogenic enzyme substrates” (Glycosynth Limited, priority 2013, dated 2018):
Structures can show the parent of a compound that is named as a salt. Where two headings read alike, the source gives them in different places.

Tests used:
[1] = system: Burkholderia cepacia 1222; assay: Agar plate multi-point inoculation, colour; type: cell-based; settings: Columbia agar, FAC 500 mg/L, substrate 300 mg/L, 37° C. 18 h in air
[2] = system: Providencia rettgeri NCTC 7475; assay: Agar plate multi-point inoculation, colour; type: cell-based
[3] = system: Citrobacter freundii NCTC 9750 or 46262; assay: Agar plate multi-point inoculation, colour; type: cell-based; settings: Columbia agar, FAC 500 mg/L, substrate 300 mg/L, 37° C. 18 h in air
[4] = system: Bacillus subtilis NCTC 9372; assay: Agar plate multi-point inoculation, colour; type: cell-based
[5] = system: Serratia marcescens NCTC 10211; assay: Agar plate multi-point inoculation, colour; type: cell-based
[6] = system: Pseudomonas aeruginosa NCTC 10662; assay: Agar plate multi-point inoculation, colour; type: cell-based
[7] = system: Enterococcus faecium NCTC 7171; assay: Agar plate multi-point inoculation, colour; type: cell-based
[8] = system: Listeria monocytogenes NCTC 11994; assay: Agar plate multi-point inoculation, colour; type: cell-based
[9] = system: Enterobacter cloacae NCTC 11936; assay: Agar plate multi-point inoculation, colour; type: cell-based
[10] = system: Yersinia enterocolitica NCTC 11176; assay: Agar plate multi-point inoculation, colour; type: cell-based; settings: Columbia agar, FAC 500 mg/L, substrate 300 mg/L, 37° C. 18 h in air
[11] = system: Steptococcus pyogenes NCTC 8306; assay: Agar plate multi-point inoculation, colour; type: cell-based
[12] = system: Morganella morganii 462403 (wild); assay: Agar plate multi-point inoculation, colour; type: cell-based; settings: Columbia agar, FAC 500 mg/L, substrate 300 mg/L, 37° C. 18 h in air
[13] = system: Staphylococcus aureus NCTC 6571; assay: Agar plate multi-point inoculation, colour; type: cell-based
[14] = system: Salmonella typhimurium NCTC 74; assay: Agar plate multi-point inoculation, colour; type: cell-based
[15] = system: Staphylococcus epidermidis NCTC 11047; assay: Agar plate multi-point inoculation, colour; type: cell-based
[16] = system: Escherichia coli NCTC 10418; assay: Agar plate multi-point inoculation, colour; type: cell-based
[17] = system: Staphylococcus aureus (MRSA) NCTC 11939; assay: Agar plate multi-point inoculation, colour; type: cell-based; settings: for Colour: Columbia agar, FAC 500 mg/L, substrate 300 mg/L, 37° C. 18 h in air
[18] = system: Candida glabrata NCPF 3943; assay: Agar plate multi-point inoculation, colour; type: cell-based
[19] = system: Enterococcus faecalis NCTC 775; assay: Agar plate multi-point inoculation, colour; type: cell-based
[20] = system: Candida albicans ATCC 90028; type: cell-based; settings: Columbia agar, FAC 500 mg/L, substrate 300 mg/L, 37° C. 18 h in air
[21] = system: Acinetobacter baumannii NCTC 19606; assay: Agar plate multi-point inoculation, colour; type: cell-based; settings: Columbia agar, FAC 500 mg/L, substrate 300 mg/L, 37° C. 18 h in air
[22] = system: Burkholderia cepacia NCTC 10931; assay: Agar plate multi-point inoculation, colour; type: cell-based; settings: Columbia agar, FAC 500 mg/L, substrate 300 mg/L, 37° C. 18 h in air
[23] = system: Klebsiella pneumoniae NCTC 9528; assay: Agar plate multi-point inoculation, colour; type: cell-based; settings: Columbia agar, FAC 500 mg/L, substrate 300 mg/L, 37° C. 18 h in air
range of microorganisms = assay: Agar plate evaluation with a range of microorganisms (hue, diffusion, background); type: cell-based; settings: agar plates with FAC
[24] = Columbia agar, FAC 500 mg/L, substrate 300 mg/L, 37° C. 18 h in air

SMILES	melting point	Colour [1]	Colour [2, 24]	Colour [3]	Colour [4, 24]	Colour [5, 24]	Colour [6, 24]	Colour [7, 24]	Colour [8, 24]	Colour [9, 24]	Colour [10]	Colour [11, 24]	Colour [12]	Colour [13, 24]	Colour [14, 24]	Colour [15, 24]	Colour [16, 24]	Colour [17]	Colour [18, 24]	Colour [20]	also measured
O=C(O)C1OC(Oc2cc3ccccc3cc2O)C(O)C(O)C1O (as salt: salt) [Compound 12a, DHN-β-D-glucuronide CHA Salt]	223 to 224 °C																				
O=C(O)C1OC(Oc2cc3cc(Br)c(Br)cc3cc2O)C(O)C(O)C1O (as salt: salt) [Compound 29, 6,7-Dibromo-DHN-β-D-glucuronide CHA Salt]	221 to 224 °C																				
OC[C@H]1O[C@@H](Oc2cc3ccccc3cc2O)C(O)C1O (stereo partly drawn) [Compound 2, DHN-β-D-ribofuranoside]	181 to 182 °C	−	++	++	−	++	−	−	−	++	−	−	++	+	++	−	++	+	−	−	hydrolysis of substrate ([13]; agar plates with FAC): able to hydrolyse; hydrolysis of substrate ([15]; agar plates with FAC): unaffected; hydrolysis of substrate ([17]; agar plates with FAC): able to hydrolyse; Colour [19, 24]: −
OCC1OC(Oc2cc3ccccc3cc2O)C(O)C(O)C1O [Compound 6, DHN-α-D-glucopyranoside]	164 to 166 °C	−	−	−	++	++	−	Tr.	++	++	Tr.	++	−	+/−	−	+	+	+/−	−	−	Colour [19, 24]: ++
OCC1OC(Oc2cc3ccccc3cc2O)C(O)C(O)C1O [Compound 10, DHN-α-D-galactopyranoside]		−	−	−	−	−	−	−	−	Tr.	−	−	−	−	−	−	Tr.	−	−	−	Colour [19, 24]: −
O=C([O-])C1OC(Oc2cc3ccccc3cc2O)C(O)C(O)C1O.[Na+] [Compound 12b, DHN-β-D-glucuronide Sodium Salt]	53 to 55 °C	−	−	−	−	−	−	−	−	−	−	−	−	−	−	−	++	−	−	−	hydrolysis of substrate (judged by colour) ([16]; agar plates containing FAC): strong colour; Colour [19, 24]: −
CC(=O)NC1C(Oc2cc3ccccc3cc2O)OC(CO)C(O)C1O [Compound 15, DHN-N-acetyl-β-D-glucosaminide]	204 to 205 °C	−	−	−	−	++	−	++	++	+/−	+	++	−	−	−	−	−	−	−	−	Colour [19, 24]: ++
CCCCCCCC(=O)Oc1cc2ccccc2cc1OC(=O)CCCCCCC [Compound 16, DHN-dicaprylate]			+		−	+	+	−	−	−	−	−		−	−	−	−	−	−	−	Colour [21]: +; Colour [22]: −; Colour [19, 24]: −; Colour [23]: −
O=[N+]([O-])c1c(O)c(O[C@@H]2O[C@H](CO)C(O)C2O)cc2ccccc12 (stereo partly drawn) [Compound 19, 1-Nitro-DHN-β-D-ribofuranoside]	> 170 °C (dec.)																				colour (hue) after hydrolysis (range of microorganisms): more distinctly red
OCC1OC(Oc2cc3cc(Br)c(Br)cc3cc2O)C(O)C(O)C1O [Compound 25, 6,7-Dibromo-DHN-β-D-galactopyranoside]	256 to 257 °C	+/−	−	+	−	+	−	+/−	+/−	−	−	−	−	−	−	−	++	−	−	−	Colour [19, 24]: Tr.
OCC1OC(Oc2cc3cc(Br)c(Br)cc3cc2O)C(O)C(O)C1O [Compound 27, 6,7-Dibromo-DHN-β-D-glucopyranoside]		+	++	+	+	++	−	+/−	+/−	−	−	−	−	Tr.	−	−	Tr.	Tr.	−	−	Colour [19, 24]: Tr.
O=C(O)C1OC(Oc2cc3cc(Br)c(Br)cc3cc2O)C(O)C(O)C1O [Compound 29, 6,7-Dibromo-DHN-β-D-glucuronide CHA Salt]		−		−							−		−					−		−	Colour [2]: −; Colour [4]: −; Colour [5]: −; Colour [6]: −; Colour [7]: −; Colour [8]: −; Colour [9]: −; Colour [11]: −; Colour [13]: −; Colour [14]: −; Colour [15]: −; Colour [16]: ++; Colour [18]: −; Colour [19]: −
